Tests used:
APEH-1Dl [1] = target: T1, APEH-1Dl (Dicentrarchus labrax, UniProt A0A8C4H3D3); assay: exopeptidase (aminopeptidase) assay, pNA release; type: biochemical; settings: 15 °C
T1 construct: native, purified from red blood cells; 80 kDa monomer, about 300 kDa homotetramer; N-terminus 1AAESQPATEE; deposited cDNA covers only 208 aa of the C-terminal part
Source text: exopeptidase (aminopeptidase) assay, pNA release on APEH-1Dl

APEH-1Dl [2] = target: T1, APEH-1Dl; assay: exopeptidase assay, fluorogenic AMC release; type: biochemical; settings: 15 °C
Source text: exopeptidase assay, fluorogenic AMC release on APEH-1Dl

T1 sequence (A0A8C4H3D3 entry or part of it): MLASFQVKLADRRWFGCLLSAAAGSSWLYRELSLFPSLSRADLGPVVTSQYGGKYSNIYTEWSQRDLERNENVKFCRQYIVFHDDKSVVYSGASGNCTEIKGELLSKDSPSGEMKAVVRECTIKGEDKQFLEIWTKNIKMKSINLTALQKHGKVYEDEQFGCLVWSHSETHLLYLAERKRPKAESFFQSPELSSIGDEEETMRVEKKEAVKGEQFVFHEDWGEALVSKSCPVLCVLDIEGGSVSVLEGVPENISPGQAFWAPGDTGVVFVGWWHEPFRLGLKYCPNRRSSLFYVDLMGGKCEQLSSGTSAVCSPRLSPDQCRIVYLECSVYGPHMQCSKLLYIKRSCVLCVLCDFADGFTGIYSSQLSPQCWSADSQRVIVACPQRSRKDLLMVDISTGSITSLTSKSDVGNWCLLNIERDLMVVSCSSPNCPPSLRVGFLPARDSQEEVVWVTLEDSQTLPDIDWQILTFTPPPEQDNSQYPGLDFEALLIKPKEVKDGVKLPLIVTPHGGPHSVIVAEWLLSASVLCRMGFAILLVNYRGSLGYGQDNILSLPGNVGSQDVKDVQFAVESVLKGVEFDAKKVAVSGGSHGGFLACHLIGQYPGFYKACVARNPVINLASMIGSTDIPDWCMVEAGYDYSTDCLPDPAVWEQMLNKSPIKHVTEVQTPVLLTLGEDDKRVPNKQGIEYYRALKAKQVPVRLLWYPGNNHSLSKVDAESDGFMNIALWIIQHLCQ

Row | Km (APEH-1Dl [1]) [µM] | Km (APEH-1Dl [2]) [µM] | Structure (SMILES)
1 | 28 |  | CC(=O)N[C@@H](C)C(=O)Nc1ccc([N+](=O)[O-])cc1 [Ac-Ala-pNA]
2 |  | 52 | CSCC[C@H](NC(C)=O)C(=O)Nc1ccc2c(C)cc(=O)oc2c1 [Ac-Met-AMC]

Source: publication PMC4422685, “A New APEH Cluster with Antioxidant Functions in the Antarctic Hemoglobinless Icefish Chionodraco hamatus” (PLoS ONE, 2015)
